The values below come from patent US8420697B2, “Treatment of acute exacerbation of asthma and reduction of likelihood of hospitalization of patients suffering therefrom” (MediciNova, Inc., priority 2009, dated 2013).

Data set [1] concerns the target T1, Hu β2 (Homo sapiens, UniProt P07550).
T1 construct: host or cells: CHO
The experiment in a line: Competitive binding (Cerep 14320), human β2. The source says: (§1) The Active Agent (MN-221 a/k/a bedoradrine or its pharmaceutically acceptable salts) administered intravenously allows it to distribute and partition into the congested lung tissue of AEA patients and allow bronchodilation without undue cardiovascular side effects. Table 1, below, provides an example of the adrenoceptor action profile for MN-221 determined experimentally: [table]

For another data set, the system named is ragweed sensitized dogs. The experiment in a line: Reversal of ragweed-induced bronchoconstriction in sensitized dogs. As to conditions: i.v. 0.04 to 0.4 mg/kg; between 0.75 and 6.7 min after dosing; p<0.001 up to 4.5 min, p<0.01 up to 6.7 min. In kind it is in vivo.
The test system of a further data set is patients with severe AEA. Description: Clinical study of MN-221 plus SOC in emergency department patients with AEA. The class given is in vivo, humans. How it is done: MN-221 was tested at escalating doses of 240 μg to 1,080 μg in patients with AEA treated in emergency departments (EDs). The study included 29 (13 treated with SOC only and 16 treated with MN-221 in combination with SOC) patients with severe AEA. All patients were administered SOC treatment as follows: supplemental oxygen given to maintain oxygen saturation measured by pulse oximetry of ≧90%; two doses of inhaled beta2-agonist (in this study, albuterol 5 mg) via nebulizer given approximately every 20 minutes; simultaneously with two doses of an inhaled anti-cholinergic agent (in this study, ipratropium 0.5 mg) via nebulizer given approximately every 20 minutes; one dose of corticosteroid given orally (in this study, prednisone 60 mg) or intravenously (in this study, methylprednisolone 125 mg), and intravenous magnesium sulfate (2 gm, diluted with 50-100 mL normal saline) and given over 10 minutes to patients with an FEV1≦25% of predicted upon ED presentation treatment.
MN-221 was administered at the following doses: 16 μg/min for 15 minutes (total of 240 μg); 30 μg/min for 15 minutes (total of 450 μg); 16 μg/min for 15 minutes; 8 μg/min for 105 minutes (total of 1,080 μg). A lyophilized unit dose for of MN-221, containing 2 mg MN-221 and lactose in a 10 mL vial was employed in the administration. Vials containing 2 mg (2000 μg) of MN-221 and vials containing placebo were reconstituted as follows. 4 mL of 5% dextrose in water was added to each 10 mL vial containing MN-221 to make 500 μg/mL stock solution (2000 μg/4 mL=500 μg/mL). 2 mL (1,000 μg) of stock solution was added to 123 mL 5% dextrose in water to make the total volume of 125 mL (123 mL+2 mL=125 mL). Final MN-221 solution equal to 1,000 μg/125 mL or 8 μg/mL was prepared this way.
Patients were administered SOC treatment (inhaled albuterol, 2.5 mg via nebulizer up to every 20 minutes) and ipratropium (0.5 mg via nebulizer up to every 20 minutes) in addition to treatment with MN-221 or placebo.

Data set [2] concerns the target T2, Human β1 (Homo sapiens, UniProt P08588).
T2 construct: host or cells: HEK
Description: Competitive binding (Cerep 14320), human β1. As to conditions: HEK (Human β1).
Excerpt: as §1

The subject of another data set is β1 (GP Rt atrium). Description: Ex vivo organ bioassay (Cerep 13271), GP right atrium.
Excerpt: as §1

For data set [3], the target named is T2, Human β1. Description: Cell bioassay, cAMP accumulation, human β1 in HEK. In kind it is cell-based. The conditions noted are these: read-out: cell bioassay (EC50 cAMP accum.) β1.
Excerpt: as §1
(Changes in cAMP serve as a functional read-out for many G protein-coupled receptors.)

For data set [4], the target named is T1, Hu β2. Description: Cell bioassay, cAMP accumulation, human β2 in CHO. In kind it is cell-based.
Excerpt: as §1

The target in data set [5] is T3, β2 (GP carbachol-tx trachea) (Cavia porcellus, UniProt Q8K4Z4).
T3 construct: tissue Cerep; host or cells: guinea pig trachea, carbachol-contracted
T3 sequence (Q8K4Z4 whole entry): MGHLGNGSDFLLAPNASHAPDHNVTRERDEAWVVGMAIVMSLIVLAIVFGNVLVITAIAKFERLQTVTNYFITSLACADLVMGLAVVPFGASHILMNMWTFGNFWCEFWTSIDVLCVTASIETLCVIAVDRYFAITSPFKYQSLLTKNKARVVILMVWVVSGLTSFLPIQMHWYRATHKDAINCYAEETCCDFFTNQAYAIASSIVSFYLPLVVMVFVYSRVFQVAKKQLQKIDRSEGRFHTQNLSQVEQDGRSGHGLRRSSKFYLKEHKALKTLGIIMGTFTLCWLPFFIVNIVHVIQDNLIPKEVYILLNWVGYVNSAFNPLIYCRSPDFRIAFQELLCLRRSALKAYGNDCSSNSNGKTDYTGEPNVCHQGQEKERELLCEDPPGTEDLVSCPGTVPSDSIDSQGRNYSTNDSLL
Description: Ex vivo organ bioassay (Cerep 13271), GP carbachol-treated trachea.
Excerpt: as §1

For the next data set, the system named is telemetered dogs. Description: Cardiovascular safety in telemetered dogs, i.v. MN-221 with nebulized albuterol. The class given is in vivo. As to conditions: for heart rate, agent alone: albuterol inhaled 5 or 10 ug/kg, MN-221 i.v. over 15 min 0.3, 3 or 30 ug/kg; for MAP or QTc, agent alone: either agent at any dose. The procedure: In a separate study with telemetered dogs at the Lovelace Respiratory Research Institute, the effect of i.v. MN-221 administration in addition to nebulized albuterol was performed to assess cardiovascular changes and safety of the combination therapy. Albuterol was administered by inhalation at 5 or 10 ug/kg and MN-221 was intravenously administered over 15 min at 0.3, 3, or 30 ug/kg. […] See, FIG. 4.

Structures are written as SMILES. Counter-ions that a name gives are not always drawn. Marks after values point to notes of the source that are not given here.

T1 sequence (P07550 whole entry): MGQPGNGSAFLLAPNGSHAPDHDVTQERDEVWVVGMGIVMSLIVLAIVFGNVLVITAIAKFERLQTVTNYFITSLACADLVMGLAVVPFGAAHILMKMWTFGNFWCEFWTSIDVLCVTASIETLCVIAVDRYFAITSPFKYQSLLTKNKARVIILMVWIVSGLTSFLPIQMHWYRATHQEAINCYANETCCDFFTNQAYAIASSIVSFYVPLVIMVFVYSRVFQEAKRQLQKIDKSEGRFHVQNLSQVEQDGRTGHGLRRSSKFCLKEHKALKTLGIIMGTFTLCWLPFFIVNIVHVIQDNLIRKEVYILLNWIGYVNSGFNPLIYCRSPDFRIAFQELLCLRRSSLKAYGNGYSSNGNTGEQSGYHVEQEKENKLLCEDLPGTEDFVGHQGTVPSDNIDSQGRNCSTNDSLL
T2 sequence (P08588 whole entry): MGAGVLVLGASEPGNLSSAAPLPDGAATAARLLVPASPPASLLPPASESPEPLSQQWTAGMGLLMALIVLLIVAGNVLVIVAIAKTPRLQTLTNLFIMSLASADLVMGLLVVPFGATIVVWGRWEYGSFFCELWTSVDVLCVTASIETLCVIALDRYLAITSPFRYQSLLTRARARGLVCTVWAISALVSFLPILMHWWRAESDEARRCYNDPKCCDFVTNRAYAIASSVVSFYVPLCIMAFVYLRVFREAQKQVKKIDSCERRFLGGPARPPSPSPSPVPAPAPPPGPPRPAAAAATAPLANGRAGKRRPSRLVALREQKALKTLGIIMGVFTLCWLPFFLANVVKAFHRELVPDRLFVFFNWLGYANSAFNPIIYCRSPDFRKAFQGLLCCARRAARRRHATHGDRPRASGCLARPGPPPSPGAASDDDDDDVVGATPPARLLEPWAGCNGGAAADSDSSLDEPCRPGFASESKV

Turning to `CN(C)C(=O)COc1ccc2c(c1)C[C@@H](NC[C@H](O)c1ccc(O)c(CCO)c1)CC2` [MN-221, acetamide, N,N-dimethyl-2-[[(7S)-5,6,7,8-tetrahydro-7-[[(2R)-2-hydroxy-2-[4-hydroxy-3-(2-hydroxyethyl)phenyl]ethyl]amino]-2-naphthalenyl]oxy], sulfate], the IC50 (in general, the concentration at which inhibition is half-maximal) on Hu β2 [1] (CHO (Hu β2)) turned out to be 270 nM; at Human β1 [2], 11800 nM. In addition, the “Competitive Binding β1/β2” value on Hu β2 [1] (ratio of IC50 β1 to β2) is 42. For the same molecule, the “reversal of ragweed-induced bronchoconstriction” value with ragweed sensitized dogs was “statistically significant, and near maximal reversal of bronchoconstriction”. Further, in the data set with patients with severe AEA (MN-221 added to standardized care), the “safety (ECG, laboratory, adverse experience data)” value was “No safety concerns”. Further, in the data set with patients with severe AEA (MN-221 combined with SOC, FIG. 2), the “heart rate change in patients” value is listed as “absence of significant heart rate increase”. For the same molecule, the “Improvement in FEV1 values versus SOC” value in the data set with patients with severe AEA (MN-221 in addition to SOC treatment) is reported as “generally appeared to be greater”. In addition, the hospitalization rate in the data set on patients with severe AEA (MN-221 with SOC, 4 of 16 patients, SOC only 54% (7 of 13)) turned out to be 25%. In addition, the agonist character entry in the data set with β1 (GP Rt atrium) (GP Rt atrium) is “a partial agonist”. The “ex vivo Organ bioassay est EC39 β1” value with β1 (GP Rt atrium) (GP Rt atrium (% isoprot), EC39 = 39% of isoproterenol maximum response) is reported as ~1* μM. For the same molecule, the Emax result with β1 (GP Rt atrium) (GP Rt atrium, % of isoproterenol maximum response) is “Emax = 39%”. Moreover, the EC50 (in general, the midpoint of the concentration-response curve) at Human β1 [3] is > 50000 nM; on Hu β2 [4] (CHO (Hu β2), read-out: cell bioassay (EC50 cAMP accum.) β2), 13 nM; in [5] (GP carbachol-tx trachea (% salbut)) it was 28 nM. Besides, the “cell bioassay cAMP accum. β1/β2” value on Hu β2 [4] (ratio of EC50 β1 to β2) was >3000. The “ex vivo Organ bioassay β1/β2” value in data set [5] (ratio of EC39 (atrium) to EC50 (trachea)) is on record as 36. Besides, the “MAP, QTc with combination therapy” value in the data set with telemetered dogs (MN-221 plus albuterol) is listed as “not adversely changed”. In addition, the “heart rate, agent alone” value in the data set with telemetered dogs is reported as “increased heart rate to a modest level”. For the same molecule, the “heart rate, MN-221 added on top of albuterol” value in the data set with telemetered dogs (clinically-relevant doses of both) is reported as “no additional increase in heart rate”. In addition, in the data set on telemetered dogs, the “MAP or QTc, agent alone” value is “No adverse changes”.
For `CC(C)(C)NCC(O)c1ccc(O)c(CO)c1` (stereo not shown) [albuterol, reference compound], in the data set with telemetered dogs, the “heart rate, agent alone” value is listed as “increased heart rate to a modest level” and the “MAP or QTc, agent alone” value is listed as “No adverse changes”.
